Laboratory results reported in patent US20260109725A1, “MACROLIDE SENOLYTIC COMPOUNDS” (LUNELLA BIOTECH, INC., priority 2022, published 2026).

Legend:
Type in all cases: cell-based, human
[1] = tested on: MRC-5 cells treated with BrdU (senescent fibroblasts); assay: SRB assay, BrdU-treated (senescent) MRC-5 cells
Protocol: (§1) For example, in one assay bromodeoxyuridine (5-bromo-2′-deoxyuridine), also known as BrdU, was used to induce senescence in a cell population. BrdU is an analog of the nucleoside thymidine commonly used to identify proliferating cells. BrdU induces controlled DNA damage, and drives cells towards senescence with high efficiency. In the BrdU assay, normal fibroblasts are subjected to prolonged culture (8-days) in the presence of BrdU at 100 μM to induce controlled DNA-damage and senescence. […] Senolytic activity was assessed using the sulforhodamine B assay, also known in the art as the SRB assay. This assay measures the amount of protein remaining attached to the tissue-culture dishes, and is a surrogate marker for cell viability.
(§2) FIG. 1 compares SRB assay results for different concentrations of Azithromycin (100 µM and 50 μM) and Compound [I] (100 μM and 50 μM) of the present approach, on both control MRC-5 cells and MRC-5 cells treated with BrdU. […] (labelled as “Azi-Gal” in FIG. 1) for another 5 days. After that, the SRB assay was performed to determine the effects of the drug on cell viability, using normal MRC-5 cells as the control. […] However, at 50 μM Azithromycin had no effect on either the control cells or senescent cells.
(§3) BrdU Assay: Cells were plated into 24-well plates. Next day, half of the plate was treated with 100 μM of BrdU while control wells were treated with vehicle only (DMSO) and incubated for 8 days at 37° C. in a 5% CO2 humidified atmosphere. After 8 days of BrdU treatment cells were treated with various test compounds or drugs (e.g., azithromycin, roxithromycin, telithromycin, erythromycin, etc.) for another 3-5 days. BrdU or vehicle treatments were continued during the drug treatments as well.
(§4) Sulphorhodamine B assay: After the incubation of the plates cell viability was measured by Sulphorhodamine B assay (SRB). The assay is based on the measurement of cellular protein contents. Cells were fixed with 10% Trichloroacetic acid (TCA) for 1 hour at […], and were dried overnight at room temperature. Then, plates were incubated with SRB for 30 min, washed twice with 1% acetic acid and air dried for at least 1 h. Finally, the protein-bound dye was dissolved in a 10 mM Tris, pH 8.8, solution and read using a plate reader at 540-nm.

[2] = tested on: control MRC-5 cells (normal lung fibroblasts); assay: SRB assay, control (normal) MRC-5 cells; settings: 10 μM
Protocol: as §1, §2, §3, §4

normal MRC-5 cells = assay: Images of MRC-5 fibroblasts without BrdU pre-treatment; settings: 50 μM
Protocol: FIGS. 3A and 3B are images of MRC-5 fibroblasts without and with BrdU pre-treatment, respectively, treated with Compound [I] at a concentration of 50 μM. […] The scale bar in the upper-right of FIGS. 3B and 3C represents 20 μm.
as §3

MCF-7 cells = assay: mammosphere formation assay (3D anchorage independent growth)
Protocol: The compounds disclosed herein may also be used as therapeutic agent to selectively eradicate CSCs for treating and/or preventing tumor recurrence and/or metastasis. […] This assay measures the amount of residual protein that adheres to tissue culture dishes and is a surrogate marker of cell viability.
3D Anchorage Independent Growth Assay: This assay is also referred to as the mammosphere formation assay. A single-cell suspension was prepared using enzymatic, and manual disaggregation (25-g needle). Then, cells were plated at a density of 500 cells/cm^2 in mammosphere medium (DMEM-F12+1X B-27 Plus Supplement+20 ng/ml EGF+Pen/Strep) under non-adherent conditions, in culture dishes pre-coated with (2-hydroxyethylmethacrylate) (poly-HEMA, Sigma Aldrich Inc.), called “mammosphere plates.” Cells were grown for 5 days and maintained in a humidified incubator at 37° C. After 5 days of culture, 3D-mammospheres >50 μm were counted using an eye piece (“graticule”), and the percentage of cells plated which formed spheres was calculated and is referred to as percent mammosphere formation, and was normalized to one (1=100% MFE). 3D mammosphere formation efficiency (MFE) was analyzed in both the ATP-low and ATP-high sub-populations of cells. All 3D mammosphere experiments were performed in triplicate, at least 3 times independently.

Compound: CC[C@H]1OC(=O)[C@H](C)[C@@H](O[C@@H]2C[C@@](C)(OC)[C@@H](O)[C@H](C)O2)[C@H](C)[C@@H](O[C@@H]2O[C@H](C)C[C@H](N(C)C)[C@H]2OC(=O)OCc2ccc(O[C@@H]3O[C@H](COC(C)=O)[C@H](OC(C)=O)[C@H](OC(C)=O)[C@H]3OC(C)=O)c([N+](=O)[O-])c2)[C@](C)(O)C[C@@H](C)CN(C)[C@H](C)[C@@H](O)[C@]1(C)O [Compound [I], [(2R,3S,4S,5R,6S)-3,4,5-triacetoxy-6-[4-[[(2S,3R,4S,6R)-4-(dimethylamino)-2-[[(2R,3S,4R,5R,8R,10R,11R,12S,13S,14R)-2-ethyl-3,4,10-trihydroxy-13-[(2S,4R,5S,6S)-5-hydroxy-4-methoxy-4,6-dimethyl-tetrahydropyran-2-yl]oxy-3,5,6,8,10,12,14-heptamethyl-15-oxo-1-oxa-6-azacyclopentadec-11-yl]oxy]-6-methyl-tetrahydropyran-3-yl]oxycarbonyloxymethyl]-2-nitro-phenoxy]tetrahydropyran-2-yl]methyl acetate]
- effect on senescent cells (SRB) ([1]; 10 μM): effective
- selectivity towards senescent MRC-5 fibroblasts (SRB) ([1]; 50 μM, senescent vs control MRC-5): exceptional selectivity
- effect on control cells (SRB) [2]: effective
- effect on normal MRC-5 cells (images) (normal MRC-5 cells): little effect
- inhibition of mammosphere formation (MCF-7 cells; 100 μM): nearly complete inhibition
- IC50 (MCF-7 cells; Homo sapiens, MCF7): 60 µM
